The nature of this data set: TIMS collisional cross section (CCS, N2) of the lipid ion; higher = larger ion cross section. As to conditions: ionization mode: negative, one isomer drawn. On the procedure:
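Lipid extracts of human plasma (NIST SRM 1950), mouse liver or HeLa cells were separated by nanoflow C18 LC (30 min gradient) and analysed by TIMS-PASEF on a timsTOF Pro. Ion mobility was calibrated with the Agilent tuning mix (negative mode ions) and converted to collisional cross sections (Mason–Schamp, N2).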

[1] abbreviates: sample type: Mouse Liver, ion (formula + adduct): [C43H76NO7P-H] 1-.
Where [2] appears, read: sample type: Mouse Liver, ion (formula + adduct): [C40H75O10P-H] 1-.
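Also: lipids from MTBE extraction, five replicate injections per sample, 100 ms TIMS ramp spanning 0.6–1.95 Vs/cm², lipid identity assigned from PASEF MS/MS spectra.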

As for `CC/C=C\C/C=C\C/C=C\C/C=C\C/C=C\C/C=C\CCC(=O)OC[C@H](COP(=O)(O)OCCN)OC(=O)CCCCCCC/C=C\C/C=C\CCCCC` [PE 22:6_18:2], the “TIMS collisional cross section” value (sample type: Mouse Liver, ion (formula + adduct): [C45H74NO8P-H] 1-) is on record as 276.6 Å².
As to `CC/C=C\C/C=C\C/C=C\C/C=C\C/C=C\C/C=C\CCC(=O)OC[C@H](COP(=O)(O)OCCN)OC(=O)CCCCCCCCCCCCCCCCCCC` [PE 22:6_20:0], the “TIMS collisional cross section” value (sample type: Mouse Liver, ion (formula + adduct): [C47H82NO8P-H] 1-) was determined as 287.5 Å².
For the molecule `CC/C=C\C/C=C\C/C=C\C/C=C\C/C=C\C/C=C\CCC(=O)OC[C@H](COP(=O)(O)OCCN)OC(=O)CC/C=C\C/C=C\C/C=C\C/C=C\C/C=C\C/C=C\CC` [PE 22:6_22:6], under “sample type: Mouse Liver, ion (formula + adduct): [C49H74NO8P-H] 1-”, the “TIMS collisional cross section” value is on record as 283.9 Å².
In the case of `CC/C=C\C/C=C\C/C=C\C/C=C\C/C=C\CCCC(=O)O[C@H](COCCCCCCCCCCCCCCCC)COP(=O)(O)OCCN` [PE O- 16:0@_20:5], the “TIMS collisional cross section” value (sample type: Human plasma, ion (formula + adduct): [C41H74NO7P+AcO] 1-) came to 280.1 Å².
`CC/C=C\C/C=C\C/C=C\C/C=C\C/C=C\C/C=C\CCC(=O)O[C@H](COCCCCCCCCCCCCCCCC)COP(=O)(O)OCCN` [PE O- 16:0@_22:6]: the “TIMS collisional cross section” value runs as follows: (sample type: Human plasma, ion (formula + adduct): [C43H76NO7P-H] 1-) 274 Å²; under setting [1], 273.4 Å².
Consider `CCCCCCCCCCCCCCCCCCOC[C@H](COP(=O)(O)OCCN)OC(=O)CCCCCCCCCCCCCC` [PE O- 18:0@_15:0], for which the “TIMS collisional cross section” value (sample type: Human plasma, ion (formula + adduct): [C38H78NO7P+AcO] 1-) came out at 287.3 Å².
Take `CCCCCCC/C=C\CCCCCCCC(=O)O[C@H](COCCCCCCCCCCCCCCCCCC)COP(=O)(O)OCCN` [PE O- 18:0@_17:1]: under “sample type: Human plasma, ion (formula + adduct): [C40H80NO7P+AcO] 1-”, the “TIMS collisional cross section” value stood at 292.4 Å².
Regarding `CCCCCCCCCCCCCCCCCCOC[C@H](COP(=O)(O)OCCN)OC(=O)CCCCCCCCCCCCCCCCCC` [PE O- 18:0@_19:0], the “TIMS collisional cross section” value (sample type: Human plasma, ion (formula + adduct): [C42H86NO7P+AcO] 1-) turned out to be 298 Å².
`CCCCCCCCCCCCCCCCCCOC[C@H](COP(=O)(O)OCCN)OC(=O)CCCCCCCCCCCCCCCC` [PE O- 18:0_17:0]: the “TIMS collisional cross section” value (sample type: Mouse Liver, ion (formula + adduct): [C40H82NO7P-CH3] 1-) worked out at 267.9 Å².
With `CCCCCCCCC/C=C\CCCCCCCC(=O)O[C@H](COCCCCCCCCCCCCCCCCCCCC)COP(=O)(O)OCCN` [PE O- 20:0@_19:1], the “TIMS collisional cross section” value (sample type: Human plasma, ion (formula + adduct): [C44H88NO7P+AcO] 1-) was 303.7 Å².
Take `CCCCC/C=C\C/C=C\CCCCCCCC(=O)O[C@H](CO/C=C\CCCCCCCCCCCCCC)COP(=O)(O)OCCN` [PE P- 16:0@_18:2]: the “TIMS collisional cross section” value (sample type: Human plasma, ion (formula + adduct): [C39H74NO7P-H] 1-) is 265.6 Å².
As for `CC/C=C\C/C=C\C/C=C\C/C=C\CCCCC(=O)O[C@H](CO/C=C\CCCCCCCCCCCCCC)COP(=O)(O)OCCN` [PE P- 16:0@_18:4], the “TIMS collisional cross section” value (sample type: Human plasma, ion (formula + adduct): [C39H70NO7P+AcO] 1-) was 275.7 Å².
With `CCCCCCCC/C=C\CCCCCCCCCC(=O)O[C@H](CO/C=C\CCCCCCCCCCCCCC)COP(=O)(O)OCCN` [PE P- 16:0@_20:1], the “TIMS collisional cross section” value (sample type: Mouse Liver, ion (formula + adduct): [C41H80NO7P-H] 1-) came to 273.5 Å².
`CCCCC/C=C\C/C=C\C/C=C\CCCCCCC(=O)O[C@H](CO/C=C\CCCCCCCCCCCCCC)COP(=O)(O)OCCN` [PE P- 16:0@_20:3]: the “TIMS collisional cross section” value is 271.2 Å² (sample type: Human plasma, ion (formula + adduct): [C41H76NO7P-H] 1-) and 271.2 Å² (sample type: Mouse Liver, ion (formula + adduct): [C41H76NO7P-H] 1-).
Regarding `CC/C=C\C/C=C\C/C=C\C/C=C\C/C=C\CCCC(=O)O[C@H](CO/C=C\CCCCCCCCCCCCCC)COP(=O)(O)OCCN` [PE P- 16:0@_20:5], the “TIMS collisional cross section” value is given as 283.1 Å² (sample type: Human plasma, ion (formula + adduct): [C41H72NO7P+AcO] 1-) and 268.9 Å² (sample type: Human plasma, ion (formula + adduct): [C41H72NO7P-H] 1-).
Regarding `CCCCC/C=C\C/C=C\C/C=C\C/C=C\CCCCCC(=O)O[C@H](CO/C=C\CCCCCCCCCCCCCC)COP(=O)(O)OCCN` [PE P- 16:0@_22:4], the “TIMS collisional cross section” value (sample type: Human plasma, ion (formula + adduct): [C43H78NO7P-H] 1-) is 276.3 Å².
On to `CC/C=C\C/C=C\C/C=C\C/C=C\C/C=C\C/C=C\CCC(=O)O[C@H](CO/C=C\CCCCCCCCCCCCCC)COP(=O)(O)OCCN` [PE P- 16:0@_22:6], for which the “TIMS collisional cross section” value (sample type: Human plasma, ion (formula + adduct): [C43H74NO7P-H] 1-) is listed as 274 Å² and the “TIMS collisional cross section” value (sample type: Mouse Liver, ion (formula + adduct): [C43H74NO7P-H] 1-) is on record as 274.6 Å².
Turning to `CCCCC/C=C\C/C=C\C/C=C\C/C=C\CCCC(=O)O[C@H](CO/C=C\CCCCCCCCCCCCCC)COP(=O)(O)OCCN` [PE P- 16:0_20:4], the “TIMS collisional cross section” value is reported as 270.1 Å² (sample type: Human plasma, ion (formula + adduct): [C41H74NO7P-H] 1-) and 270.1 Å² (sample type: Mouse Liver, ion (formula + adduct): [C41H74NO7P-H] 1-).
For the molecule `CCCCC/C=C\C/C=C\CCCCCCCC(=O)O[C@H](CO/C=C\CCCCCCCCCCCCCCCC)COP(=O)(O)OCCN` [PE P- 18:0@_18:2], the “TIMS collisional cross section” value (sample type: Human plasma, ion (formula + adduct): [C41H78NO7P-CH3] 1-) worked out at 269 Å².
As to `CC/C=C\C/C=C\C/C=C\C/C=C\C/C=C\CCCC(=O)O[C@H](CO/C=C\CCCCCCCCCCCCCCCC)COP(=O)(O)OCCN` [PE P- 18:0@_20:5], the “TIMS collisional cross section” value under setting [1] is 274.5 Å².
On to `CC/C=C\C/C=C\C/C=C\C/C=C\C/C=C\C/C=C\CCC(=O)O[C@H](CO/C=C\CCCCCCCCCCCCCCCC)COP(=O)(O)OCCN` [PE P- 18:0@_22:6], for which, under “sample type: Human plasma, ion (formula + adduct): [C45H78NO7P-CH3] 1-”, the “TIMS collisional cross section” value is 276.8 Å².
With `CCCCC/C=C\C/C=C\CCCCCCCC(=O)O[C@H](CO/C=C\CCCCCCCCCCCCCCCC)COP(=O)(O)OCCN` [PE P- 18:0_18:2], the “TIMS collisional cross section” value (sample type: Human plasma, ion (formula + adduct): [C41H78NO7P-H] 1-) is given as 272.4 Å².
As to `CCCCC/C=C\C/C=C\C/C=C\C/C=C\CCCCCC(=O)O[C@H](CO/C=C\CCCCCCCCCCCCCCCC)COP(=O)(O)OCCN` [PE P- 18:0_22:4], for the setting “sample type: Mouse Liver, ion (formula + adduct): [C45H82NO7P-H] 1-”, the “TIMS collisional cross section” value came to 281.9 Å².
For the molecule `CC/C=C\C/C=C\C/C=C\C/C=C\C/C=C\C/C=C\CCC(=O)O[C@H](CO/C=C\CCCCCC/C=C\CCCCCCCC)COP(=O)(O)OCCN` [PE P- 18:1@_22:6], the “TIMS collisional cross section” value (sample type: Mouse Liver, ion (formula + adduct): [C45H76NO7P-H] 1-) is given as 278.5 Å².
As for `CCCCC/C=C\C/C=C\CCCCCCCC(=O)O[C@H](CO/C=C\CCCCCCCCCCCCCCCCCC)COP(=O)(O)OCCN` [PE P- 20:0@_18:2], the “TIMS collisional cross section” value (sample type: Human plasma, ion (formula + adduct): [C43H82NO7P-H] 1-) was determined as 278.6 Å².
Take `CCCCCCCCC=CCCCCCCCC(=O)OC(COC(=O)CCCCCCCCCCCCCCC)COP(=O)(O)OCC(O)CO` (stereo not drawn) [PG 16:0_18:1]: the “TIMS collisional cross section” value (sample type: Mouse Liver, ion (formula + adduct): [C40H77O10P-H] 1-) came out at 275.7 Å².
In the case of `CCCCC/C=C\C/C=C\CCCCCCCC(=O)O[C@H](COC(=O)CCCCCCCCCCCCCCC)COP(=O)(O)OC[C@@H](O)CO` [PG 16:0_18:2], under setting [2], the “TIMS collisional cross section” value worked out at 273.4 Å².
As to `CC/C=C\C/C=C\C/C=C\C/C=C\C/C=C\C/C=C\CCC(=O)O[C@H](COC(=O)CCCCCCC/C=C\CCCCCCC)COP(=O)(O)OC[C@@H](O)CO` [PG 17:1@_22:6], the “TIMS collisional cross section” value (sample type: Human plasma, ion (formula + adduct): [C45H75O10P+OAcO] 1-) came to 294.7 Å².
As to `CCCCCC/C=C\CCCCCCCC(=O)O[C@H](COC(=O)CCCCCCC/C=C\CCCCCCCC)COP(=O)(O)OC[C@@H](O)CO` [PG 18:1_16:1], the “TIMS collisional cross section” value under setting [2] is listed as 276.9 Å².
With `CC/C=C\C/C=C\C/C=C\C/C=C\C/C=C\C/C=C\CCC(=O)O[C@H](COC(=O)CCCCCCC/C=C\CCCCCCCC)COP(=O)(O)OC[C@@H](O)CO` [PG 18:1_22:6@], for the setting “sample type: Mouse Liver, ion (formula + adduct): [C46H77O10P-H] 1-”, the “TIMS collisional cross section” value is 288.6 Å².
For the molecule `CCCCC/C=C\C/C=C\CCCCCCCC(=O)OC[C@H](COP(=O)(O)OC[C@@H](O)CO)OC(=O)CCCCCCC/C=C\CCCCCCCC` [PG 18:2_18:1], the “TIMS collisional cross section” value (sample type: Mouse Liver, ion (formula + adduct): [C42H77O10P-H] 1-) is recorded as 281.4 Å².
On to `CC/C=C\C/C=C\C/C=C\C/C=C\C/C=C\C/C=C\CCC(=O)O[C@H](COC(=O)CCCCCCC/C=C\C/C=C\CCCCC)COP(=O)(O)OC[C@@H](O)CO` [PG 18:2_22:6], for which the “TIMS collisional cross section” value (sample type: Mouse Liver, ion (formula + adduct): [C46H75O10P-H] 1-) was determined as 287.5 Å².
Consider `CCCCC/C=C\C/C=C\C/C=C\C/C=C\CCCC(=O)OC[C@H](COP(=O)(O)OC[C@@H](O)CO)OC(=O)CCCCCCC/C=C\CCCCCCCC` [PG 20:4_18:1@], for which the “TIMS collisional cross section” value (sample type: Mouse Liver, ion (formula + adduct): [C44H77O10P-H] 1-) is 285.3 Å².

The values above are taken from the supplement of paper PMC6965134.
